As usually defined, the IC50 is the concentration that inhibits the measured activity by half. For orientation: AC50 means the concentration at which the activity in the assay is half-maximal. The term EC50 denotes the concentration needed to bring the measured effect to its halfway point.

Molecules are shown by their SMILES. Activity calls are given as the source filed them.

The results in this text go back to ChEMBL document CHEMBL1201862, “PubChem BioAssay data set” (2004).

The test system of test [1] is Jurkat. The experiment in a line: blockers of NF-kB activation in T cells – Jurkat, luciferase reporter, luminescence, B- and T-cell, dose response (AID 489004).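 Note: NF-kB luciferase reporter Jurkat cells stimulated with PMA plus ionomycin.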 Format: functional, cell-based. Particulars: Homo sapiens.
The target in test [2] is T1, Sentrin-specific protease 6 (Homo sapiens, UniProt Q9GZR1).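 Note: Luminescence-based dose-response confirmatory assay of SENP6 inhibition, following up an ultra-high-throughput screen.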
T1 sequence (Q9GZR1 whole entry): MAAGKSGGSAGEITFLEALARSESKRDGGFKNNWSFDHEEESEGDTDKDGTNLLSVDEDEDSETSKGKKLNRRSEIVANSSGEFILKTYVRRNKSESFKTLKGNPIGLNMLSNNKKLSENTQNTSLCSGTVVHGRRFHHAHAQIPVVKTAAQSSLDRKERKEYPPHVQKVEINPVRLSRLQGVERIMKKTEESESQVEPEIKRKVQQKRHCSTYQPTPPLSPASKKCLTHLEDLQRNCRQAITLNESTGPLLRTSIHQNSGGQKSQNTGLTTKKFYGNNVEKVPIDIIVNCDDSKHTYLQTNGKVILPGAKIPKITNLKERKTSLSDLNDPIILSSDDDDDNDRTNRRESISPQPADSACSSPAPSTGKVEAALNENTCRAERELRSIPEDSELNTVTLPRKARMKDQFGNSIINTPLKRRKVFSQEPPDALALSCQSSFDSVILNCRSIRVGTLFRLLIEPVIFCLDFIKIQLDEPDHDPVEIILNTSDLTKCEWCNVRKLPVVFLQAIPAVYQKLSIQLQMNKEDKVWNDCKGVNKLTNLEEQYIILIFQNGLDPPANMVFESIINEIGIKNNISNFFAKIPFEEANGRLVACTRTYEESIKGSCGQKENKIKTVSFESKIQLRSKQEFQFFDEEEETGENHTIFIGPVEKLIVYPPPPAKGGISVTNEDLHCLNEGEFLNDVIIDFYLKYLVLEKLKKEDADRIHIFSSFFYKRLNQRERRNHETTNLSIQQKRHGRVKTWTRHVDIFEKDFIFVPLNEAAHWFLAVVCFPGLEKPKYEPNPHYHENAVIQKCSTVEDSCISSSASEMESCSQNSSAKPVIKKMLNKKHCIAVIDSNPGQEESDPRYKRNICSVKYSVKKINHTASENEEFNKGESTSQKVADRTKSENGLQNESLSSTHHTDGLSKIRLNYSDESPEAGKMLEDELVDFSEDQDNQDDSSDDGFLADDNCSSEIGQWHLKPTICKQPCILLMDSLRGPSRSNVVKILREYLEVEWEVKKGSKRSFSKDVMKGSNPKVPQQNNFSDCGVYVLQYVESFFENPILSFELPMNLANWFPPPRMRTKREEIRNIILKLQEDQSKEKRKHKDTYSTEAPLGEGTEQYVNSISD
The test is classed as functional.

The target of test [3] is T2, Replicative DNA helicase DnaB (Mycobacterium tuberculosis, UniProt P9WMR3).
T2 sequence (P9WMR3 whole entry): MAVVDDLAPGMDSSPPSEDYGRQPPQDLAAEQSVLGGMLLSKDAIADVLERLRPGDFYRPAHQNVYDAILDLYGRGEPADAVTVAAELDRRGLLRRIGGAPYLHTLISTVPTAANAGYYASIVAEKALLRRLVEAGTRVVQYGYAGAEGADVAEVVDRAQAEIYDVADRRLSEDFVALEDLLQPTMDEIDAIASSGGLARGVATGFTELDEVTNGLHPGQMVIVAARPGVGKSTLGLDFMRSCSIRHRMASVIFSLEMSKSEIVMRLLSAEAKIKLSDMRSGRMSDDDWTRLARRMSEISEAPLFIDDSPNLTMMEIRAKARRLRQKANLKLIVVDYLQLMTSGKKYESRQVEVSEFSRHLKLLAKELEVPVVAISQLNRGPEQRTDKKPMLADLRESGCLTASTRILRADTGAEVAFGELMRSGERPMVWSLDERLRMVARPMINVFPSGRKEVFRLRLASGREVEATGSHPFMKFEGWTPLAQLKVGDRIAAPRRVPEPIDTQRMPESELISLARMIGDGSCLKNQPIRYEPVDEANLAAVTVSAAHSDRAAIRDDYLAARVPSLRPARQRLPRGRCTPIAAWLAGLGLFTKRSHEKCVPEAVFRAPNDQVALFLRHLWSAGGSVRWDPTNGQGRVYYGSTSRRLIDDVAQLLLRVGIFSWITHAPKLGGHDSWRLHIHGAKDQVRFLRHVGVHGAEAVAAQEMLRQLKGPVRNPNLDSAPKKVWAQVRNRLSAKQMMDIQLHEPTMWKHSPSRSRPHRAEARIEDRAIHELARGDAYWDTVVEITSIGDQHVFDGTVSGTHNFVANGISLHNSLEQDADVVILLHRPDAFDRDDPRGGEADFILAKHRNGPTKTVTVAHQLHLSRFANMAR
In words: DnaB intein splicing inhibitors, dose response, biochemical, cell-free fluorescence (AID 449749). Format: functional.

The target of test [4] is T3, Protein RecA (Mycobacterium tuberculosis, UniProt P9WHJ3).
T3 sequence (P9WHJ3 whole entry): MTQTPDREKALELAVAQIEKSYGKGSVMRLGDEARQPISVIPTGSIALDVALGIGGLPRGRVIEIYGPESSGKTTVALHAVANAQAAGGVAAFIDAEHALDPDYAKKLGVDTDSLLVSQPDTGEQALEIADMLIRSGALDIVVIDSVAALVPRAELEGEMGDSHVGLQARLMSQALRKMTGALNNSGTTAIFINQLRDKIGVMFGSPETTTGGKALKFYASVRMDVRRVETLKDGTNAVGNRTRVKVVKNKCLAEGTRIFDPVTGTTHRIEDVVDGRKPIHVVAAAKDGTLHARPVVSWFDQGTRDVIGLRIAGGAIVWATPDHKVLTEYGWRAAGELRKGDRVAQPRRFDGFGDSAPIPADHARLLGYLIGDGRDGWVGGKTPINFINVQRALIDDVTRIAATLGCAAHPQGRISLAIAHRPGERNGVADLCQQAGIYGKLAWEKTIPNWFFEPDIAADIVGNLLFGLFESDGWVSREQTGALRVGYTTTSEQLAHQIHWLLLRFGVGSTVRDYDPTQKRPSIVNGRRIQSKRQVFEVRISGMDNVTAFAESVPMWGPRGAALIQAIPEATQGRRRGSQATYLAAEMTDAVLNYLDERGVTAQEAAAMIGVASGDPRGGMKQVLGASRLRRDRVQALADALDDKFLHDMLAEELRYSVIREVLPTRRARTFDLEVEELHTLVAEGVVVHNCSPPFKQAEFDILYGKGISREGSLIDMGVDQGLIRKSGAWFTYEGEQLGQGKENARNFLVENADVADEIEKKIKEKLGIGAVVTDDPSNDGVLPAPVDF
The experiment in a line: Fluorescence Cell-Free Homogeneous Dose Retest to Identify Inhibitors of RecA-Intein Splicing Activity. [Related pubchem assays (depositor defined):AID2097, AID2223, AID489010, AID492950]. Format: functional.

Consider `N#Cc1c(NC(=O)CSc2nc[nH]n2)sc2c1CCCCC2`, for which the IC50 in test [1] is < 0.16 µM (active); in test [2], 4 µM (active).

For the molecule `COc1ccc(C(N)c2nccc3cc(OC)c(OC)cc23)cc1OC` (centres undefined), the AC50 in test [3] is > 380 µM (inactive). For the same molecule, the EC50 in test [4] is > 380 µM (inactive).
